Measured values: US20060100431A1, “Biologically active compounds” (Amura Therapeutics Limited, priority 2002, published 2006)

Tests used:
CPB2.8ΔCTE = target: T1, CPB2.8ΔCTE (Leishmania mexicana, UniProt P36400); assay: Leishmania mexicana cysteine protease B (CPB) peptidase activity assay (Ki); type: biochemical; conditions: Ki, inhibitors of Leismania mexicana CPB protease
T1 construct: Wild-type recombinant CPB without the C-terminal extention (i.e. CPB2.8ΔCTE); Dr. Jeremy Mottram (Wellcome Centre for Molecular Parasitology, University of Glasgow)
Description: (§1) Unless otherwise stated, all general chemicals and biochemicals were purchased from either the Sigma Chemical Company, Poole, Dorset, U.K or from Fisher Scientific UK, Loughborough, Leicestershire, U.K. Absorbance assays were carried out in flat-bottomed 96-well plates (Spectra; Greiner Bio-One Ltd., Stonehouse, Gloucestershire, U.K.) using a SpectraMax PLUS384 plate reader (Molecular Devices, Crawley, U.K.). Fluorescence high throughput assays were carried out in either 384-well microtitre plates (Corning Costar 3705 plates, Fisher Scientific) or 96-well ‘U’ bottomed Microfluor W1 microtitre plates (Thermo Labsystems, Ashford, Middlesex, U.K.). Fluorescence assays were monitored using a SpectraMax Gemini fluorescence plate reader (Molecular Devices). For substrates employing either a 7-amino-4-methylcoumarin (AMC) or a 7-amino-4-trifluoromethylcoumarin (AFC) fluorophore, assays were monitored at an excitation wavelength of 365 nm and an emission wavelength of 450 nm and the fluorescence plate reader calibrated with AMC. For substrates employing a 3-amino-benzoyl (Abz) fluorophore, assays were monitored at an excitation wavelength of 310 nm and an emission wavelength of 445 nm; the fluorescence plate reader calibrated with 3-amino-benzamide (Fluka). Unless otherwise indicated, all the peptidase substrates were purchased from Bachem UK, St Helens, Merseyside, UK. Substrates utilizing fluorescence resonance energy transfer methodology (i.e. FRET-based substrates) were synthesized at Incenta Limited using published methods (Atherton & Sheppard, Solid Phase Peptide Synthesis, IRL Press, Oxford, U.K, 1989) and employed Abz (2-aminobenzoyl) as the fluorescence donor and 3-nitro-tyrosine [Tyr(NO2)] as the fluorescence quencher (Meldal, M. and Breddam, K., Anal. Biochem, 195, 141-147, 1991). Hydroxyethylpiperazine ethanesulfonate (HEPES), tris-hydroxylmethyl aminomethane (tris) base, bis-tris-propane and all the biological detergents (e.g. CHAPS, zwittergents, etc.) were purchased from CN Biosciences UK, Beeston, Nottinghamshire, U.K. Glycerol was purchased from Amersham Pharmacia Biotech, Little Chalfont, Buckinghamshire, U.K. Stock solutions of substrate or inhibitor were made up to 10 mM in 100% dimethylsulfoxide (DMSO) (Rathburns, Glasgow, U.K.) and diluted as appropriately required. In all cases the DMSO concentration in the assays was maintained at less than 1% (vol./vol.).
(§2) Assay protocols were based on literature precedent (Table 4; Barrett, A. J., Rawlings, N. D. and Woessner, J. F., 1998, Handbook of Proteolytic Enzymes, Academic Press, London and references therein) and modified as required to suit local assay protocols. Enzyme was added as required to initiate the reaction and the activity, as judged by the change in fluorescence upon conversion of substrate to product, was monitored over time. All assays were carried out at 25±1° C.
Wild-type recombinant CPB without the C-terminal extention (i.e. CPB2.8ΔCTE; Sanderson, S. J., et. al., Biochem. J., 347, 383-388, 2000) was obtained from Dr. Jeremy Mottram (Wellcome Centre for Molecular Parasitology, The Anderson College, University of Glasgow, Glasgow, U.K.). Activity assays were carried out in 100 mM sodium acetate; pH 5.5 containing 1 mM EDTA; 200 mM NaCl and 10 mM DTT (Alves, L. C., et. al., Mol. Biochem. Parasitol, 116, 1-9, 2001) using 0.25 nM enzyme. […] The rate of conversion of substrate to product was derived from the slope of the increase in fluorescence monitored continuously over time.
(§3) The apparent inhibition constant (Ki) for each compound was determined on the basis that inhibition was reversible and occurred by a pure-competitive mechanism. The Ki values were calculated, from the dependence of enzyme activity as a function of inhibitor concentration, by direct regression analysis (Prism v 3.02) using Equation 2 (Cornish-Bowden, A., 1995.). [formula]

Wild-type cruzipain = Wild-type cruzipain (Trypanosoma cruzi, UniProt P25779); assay: Trypanosoma cruzi cruzipain peptidase activity assay (Ki); type: biochemical; conditions: read-out: Ki, inhibitors of cruzain and cruzipains
Description: as §1, §2
Wild-type cruzipain, derived from Trypanosoma cruzi Dm28 epimastigotes, was obtained from Dr. Julio Scharfstein (Instituto de Biofisica Carlos Chagas Filho, Universidade Federal do Rio de Janeiro, Rio de Janeiro, Brazil). Activity assays were carried out in 100 mM sodium phosphate, pH 6.75 containing 1 mM EDTA and 10 mM L-cysteine using 2.5 nM enzyme. […] The rate of conversion of substrate to product was derived from the slope of the increase in fluorescence monitored continuously over time.
as §3

T1 sequence (P36400 126-343, stated change not applied): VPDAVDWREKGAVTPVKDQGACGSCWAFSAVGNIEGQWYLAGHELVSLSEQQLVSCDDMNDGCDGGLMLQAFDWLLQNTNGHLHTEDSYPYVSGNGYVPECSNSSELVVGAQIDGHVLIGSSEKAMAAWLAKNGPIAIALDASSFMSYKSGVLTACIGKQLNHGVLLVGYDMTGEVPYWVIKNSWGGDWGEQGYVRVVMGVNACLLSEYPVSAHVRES
Chain of Wild-type cruzipain (P25779 whole entry): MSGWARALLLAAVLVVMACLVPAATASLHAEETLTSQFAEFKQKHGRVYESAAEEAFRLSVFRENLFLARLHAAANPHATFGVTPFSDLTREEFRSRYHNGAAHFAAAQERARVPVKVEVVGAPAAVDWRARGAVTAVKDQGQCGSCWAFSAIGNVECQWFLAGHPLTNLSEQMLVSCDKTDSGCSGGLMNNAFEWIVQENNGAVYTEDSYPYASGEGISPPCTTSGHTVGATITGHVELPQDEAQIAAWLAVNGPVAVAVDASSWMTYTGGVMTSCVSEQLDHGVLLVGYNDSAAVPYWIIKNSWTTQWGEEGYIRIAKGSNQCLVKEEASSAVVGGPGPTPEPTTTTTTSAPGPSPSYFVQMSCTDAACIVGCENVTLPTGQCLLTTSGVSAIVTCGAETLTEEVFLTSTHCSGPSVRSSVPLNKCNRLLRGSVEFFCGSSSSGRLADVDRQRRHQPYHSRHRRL

Row | SMILES | Ki (Wild-type cruzipain) [µM] | Ki (CPB2.8ΔCTE) [µM]
1 | CC(C)C[C@H](NC(=O)c1ccc(C(C)(C)C)cc1)C(=O)N1CC[C@@H]2[C@H]1C(=O)CN2C(=O)Cc1ccccc1 [Example 3, (3aR,6aS)-4-tert-Butyl-N-[(1S)-3-methyl-1-(6-oxo-4-phenylacetyl-hexahydro-pyrrolo[3,2-b]pyrrole-1-carbonyl)-butyl]-benzamide] |  | < 5
2 | CC(C)C[C@H](NC(=O)c1cccc(CN)c1)C(=O)N1CC[C@@H]2[C@H]1C(=O)CN2C(=O)[C@H](C)c1ccccc1 [Example 176, (3aR,6aS)-3-Aminomethyl-N-{(1S)-3-methyl-1-[6-oxo-4-((2R)-2-phenyl-propionyl)-hexahydro-pyrrolo[3,2-b]pyrrole-1-carbonyl]-butyl}-benzamide] |  | < 5
3 | CC(C)C[C@H](NC(=O)c1ccc(-c2cccs2)cc1)C(=O)N1CC[C@@H]2[C@H]1C(=O)CN2S(=O)(=O)c1ccccc1 [Example 120, (3aR,6aS)-N-[(1S)-1-(4-Benzenesulfonyl-6-oxo-hexahydropyrrolo [3,2-b]pyrrole-1-carbonyl)-3-methyl-butyl]-4-thiophen-2-yl-benzamide] |  | < 5
4 | COC(=O)c1ccc(C(=O)N2CC(=O)[C@@H]3[C@H]2CCN3C(=O)[C@H](CC(C)C)NC(=O)c2ccc(N(C)C)cc2)cc1 [Example 76, (3aS,6aR)-4-{4-[(2S)-2-(4-Dimethylamino-benzoylamino)-4-methyl-pentanoyl]-3-oxo-hexahydro-pyrrolo[3,2-b]pyrrole-1-carbonyl}-benzoic acid methyl ester] |  | < 5
5 | CCCCCC(=O)N1CC(=O)[C@@H]2[C@H]1CCN2C(=O)[C@H](CC(C)C)NC(=O)c1ccc(N(C)C)cc1 [Example 234, (3aR,6aS)-4-Dimethylamino-N-[(1S)-1-(4-hexanoyl-6-oxo-hexahydro-pyrrolo[3,2-b]pyrrole-1-carbonyl)-3-methyl-butyl]-benzamide] |  | < 5
6 | O=C(N[C@@H](CSCc1ccccc1)C(=O)N1CC[C@@H]2[C@H]1C(=O)CN2C(=O)c1ccccc1)c1cccc(Oc2ccccc2)c1 [Example 260, (3aR,6aS)-N-[(1R)-2-(4-Benzoyl-6-oxo-hexahydro-pyrrolo[3,2-b]pyrrol-1-yl)-1-benzylsulfanylmethyl-2-oxo-ethyl]-3-phenoxy-benzamide] | < 5 | 
7 | CC(C)C[C@H](NC(=O)c1ccc(N(C)C)cc1)C(=O)N1CC[C@@H]2[C@H]1C(=O)CN2C(=O)C1CCNCC1 [Example 242, (3aR,6aS)-4-Dimethylamino-N-{(1S)-3-methyl-1-[6-oxo-4-(piperidine-4-carbonyl)-hexahydro-pyrrolo[3,2-b]pyrrole-1-carbonyl]-butyl}-benzamide] | < 5 | 
8 | COC(=O)NCC(=O)N1CC(=O)[C@@H]2[C@H]1CCN2C(=O)[C@H](CC(C)C)NC(=O)c1ccc(N(C)C)cc1 [Example 183, (3aS,6aR)-(2-{4-[(2S)-2-(4-Dimethylamino-benzoylamino)-4-methyl-pentanoyl]-3-oxo-hexahydro-pyrrolo[3,2-b]pyrrole-1-yl}-2-oxo-ethyl)-carbamic acid methyl ester] | < 5 | 

Now from value to compound, other results behind:

Row | Ki (Wild-type cruzipain) [µM] | SMILES | Ki (CPB2.8ΔCTE) [µM]
9 | < 5 | CC(C)C[C@H](NC(=O)c1ccc(N(C)C)cc1)C(=O)N1CC[C@@H]2[C@H]1C(=O)CN2C(=O)C1(N)CCC1 [Example 223, (3aR,6aS)-N-{(1S)-1-[4-(1-Amino-cyclobutanecarbonyl)-6-oxo-hexahydro-pyrrolo[3,2-b]pyrrole-1-carbonyl]-3-methyl-butyl}-4-dimethylamino-benzamide] | 
10 | < 5 | CC(C)C[C@H](NC(=O)c1ccc(N(C)C)cc1)C(=O)N1CC[C@@H]2[C@H]1C(=O)CN2C(=O)[C@@H]1C[C@@H](O)CN1 [Example 218, (3aR,6aS)-4-Dimethylamino-N-{(1S)-1-[4-((2S,4R)-4-hydroxy-pyrrolidine-2-carbonyl)-6-oxo-hexahydro-pyrrolo[3,2-b]pyrrole-1-carbonyl]-3-methyl-butyl}-benzamide] | 
11 | < 5 | Cc1ccccc1C(=O)N1CC(=O)[C@@H]2[C@H]1CCN2C(=O)[C@H](CC(C)C)NC(=O)c1ccc(N(C)C)cc1 [Example 53, (3aR,6aS)-4-Dimethylamino-N-{(1S)-3-methyl-1-[4-(2-methyl-benzoyl)-6-oxo-hexahydro-pyrrolo[3,2-b]pyrrole-1-carbonyl]-butyl}-benzamide] | 
12 | < 5 | CCn1nc(C)cc1C(=O)N[C@@H](Cc1ccc(O)cc1)C(=O)N1CC[C@@H]2[C@H]1C(=O)CN2C(=O)c1ccccc1S(C)(=O)=O [Example 313, (3aR,6aS)-2-Ethyl-5-methyl-2H-pyrazole-3-carboxylic acid {(1S)-1-(4-hydroxy-benzyl)-2-[4-(2-methanesulfonylbenzoyl)-6-oxo-hexahydropyrrolo[3,2-b]pyrrole-1-yl]-2-oxo-ethyl}-amide] | 
13 | < 5 | O=C(N[C@@H](Cc1cccc(F)c1)C(=O)N1CC[C@@H]2[C@H]1C(=O)CN2C(=O)c1ccccc1)c1cccc(Br)c1 [Example 342, (3aR,6aS)-N-[(1S)-2-(4-Benzoyl-6-oxo-hexahydro-pyrrolo[3,2-b]pyrrol-1-yl)-1-(3-fluoro-benzyl)-2-oxo-ethyl]-3-bromo-benzamide] | 
14 | < 5 | CC(=O)N[C@@H](C)C(=O)N1CC(=O)[C@@H]2[C@H]1CCN2C(=O)[C@H](CC(C)C)NC(=O)c1ccc(N(C)C)cc1 [Example 197, (3aR,6aS)-N-{(1S)-1-[4-((2S)-2-Acetylamino-propionyl)-6-oxo-hexahydro-pyrrolo[3,2-b]pyrrole-1-carbonyl]-3-methyl-butyl}-4-dimethylamino-benzamide] | 
15 | < 5 | O=C(N[C@@H](Cc1ccc(F)cc1)C(=O)N1CC[C@@H]2[C@H]1C(=O)CN2C(=O)c1ccccc1)c1cccc(Br)c1 [Example 344, (3aR,6aS)-N-[(1S)-2-(4-Benzoyl-6-oxo-hexahydro-pyrrolo[3,2-b]pyrrol-1-yl)-1-(4-fluoro-benzyl)-2-oxo-ethyl]-3-bromo-benzamide] | 
16 | < 5 | CC(C)C[C@H](NC(=O)c1ccc(N(C)C)cc1)C(=O)N1CC[C@@H]2[C@H]1C(=O)CN2C(=O)c1ccccn1 [Example 79, (3aR,6aS)-4-Dimethylamino-N-{(1S)-3-methyl-1-[6-oxo-4-(pyridine-2-carbonyl)-hexahydro-pyrrolo[3,2-b]pyrrole-1-carbonyl]-butyl}-benzamide] | 
17 | < 5 | CC(C)C[C@H](NC(=O)c1ccc(N(C)C)cc1)C(=O)N1CC[C@@H]2[C@H]1C(=O)CN2C(=O)C1CCCO1 (stereo partly drawn) [Example 238, (3aR,6aS)-4-Dimethylamino-N-{(1S)-3-methyl-1-[6-oxo-4-(tetrahydro-furan-2-carbonyl)-hexahydro-pyrrolo[3,2-b]pyrrole-1-carbonyl]-butyl}-benzamide] | 
18 | < 5 | CCC[C@H](NC(=O)c1ccc(N(C)C)cc1)C(=O)N1CC[C@@H]2[C@H]1C(=O)CN2C(=O)c1ccccc1 [Example 196, (3aR,6aS)-N-[(1S)-1-(4-Benzoyl-6-oxo-hexahydro-pyrrolo[3,2-b]pyrrole-1-carbonyl)-butyl]-4-dimethylamino-benzamide] | 
19 | < 5 | CC(C)C[C@H](NC(=O)c1ccc(N(C)C)cc1)C(=O)N1CC[C@@H]2[C@H]1C(=O)CN2C(=O)C1(N)CCCC1 [Example 224] | 
